This is an account of results in patent EP0372667A1, “2-Hydroxymethyl thiophene derivatives, process for their preparation and their use as medicaments” (SCHERING AKTIENGESELLSCHAFT, priority 1988, dated 1990).

Data set [1] concerns narkotisierten, normtensiven Hunden. Put plainly: Blood pressure and heart rate in anaesthetised normotensive dogs. As to conditions: anaesthetised normotensive dog, at a dose giving a similar fall in blood pressure; text summary of Tabelle 2. Type of data set: in vivo, Beagle-Hunde. From the text: (§1) Die Messungen von Blutdruck und Herzfrequenz wurden an der spontan hypertensiven Ratte und am narkotisierten, normotensiven Hund durchgeführt (siehe Tabelle 1 und 2).

In data set [2] the test system is wachen, spontan hypertensiven Ratten. Put plainly: Blood pressure and heart rate in conscious spontaneously hypertensive rats. As to conditions: in vivo.
Source text: as §1

Counter-ions that a name gives are not always drawn.

In the case of `Cc1cc2c(s1)CCC(CN[C@@H]1CC[C@@H](Oc3ccccc3)[C@@H]1O)C2=O` (relative stereo) [MDL 19744 A], the “Herzfrequenz (result in words)” value in data set [1] and in data set [2] was “ausgeprägten Herzfrequenzsteigerung” throughout.

In the case of `O=C1c2cc(CO)sc2CCC1CN[C@@H]1CC[C@@H](Oc2ccccc2)[C@@H]1O` (relative stereo) [Beispiel 1, 5-[N-((Z)-2-Hydroxy-(E)-3-phenoxy-cyclopentyl)-aminomethyl]-4,5,6,7-tetrahydro-2-hydroxymethyl-benzothiophen-4-on, Hydrochlorid], the “Herzfrequenz (result in words)” value was “praktisch keine Herzfrequenzänderung” in data set [1] and “Herzfrequenzerniedrigung” in data set [2].
